Literature values, collected in article PMC6972991 (Chemistry (Weinheim an Der Bergstrasse, Germany), 2019).

pKa: ≈ 4
Structure (SMILES): O=S(=O)(O)c1ccccc1 [benzenesulfonic acid]
